Data reported in US20210087640A1, “APPLICATION OF LARP7 GENE IN CANCER DIAGNOSIS AND TREATMENT” (SHANGHAI JIAO TONG UNIVERSITY, priority 2018, published 2021).
Where two headings read alike, the source gives them in different places.

Assays:
[1] = test system: triple-negative breast cancer cells HCC1937; assay: CCK8 cell viability experiment, HCC1937; type: cell-based; conditions: read-out: IC50 (the concentration of drug required for 50% inhibition)
[2] = test system: triple-negative breast cancer cells MDA-MB-231; assay: CCK8 cell viability experiment, MDA-MB-231; type: cell-based
[3] = test system: cervical cancer cells Hela; assay: CCK8 cell viability experiment, Hela; type: cell-based
MDA-MB-231 = assay: Clone formation experiment, MDA-MB-231; type: cell-based; conditions: LARP7 overexpression in MDA-MB-231 vs control
Hela = assay: Clone formation experiment, Hela; type: cell-based; conditions: LARP7 overexpression in Hela vs control
HCC1937 xenograft tumor = assay: Radiotherapy and chemotherapy of xenograft tumor mice, HCC1937; type: in vivo; conditions: CDDP and radiation
[4] = test system: MDA-MB-231 xenograft tumor; assay: Radiotherapy and chemotherapy of xenograft tumor mice, MDA-MB-231; type: in vivo; conditions: CDDP and radiation

SMILES	IC50 ([1]; Homo sapiens, HCC1937, HCC1937 control group (of LARP7 knock-down))	IC50 ([1]; Homo sapiens, HCC1937, LARP7-knock-down HCC1937 cells)	IC50 ([2]; Homo sapiens, MDA-MB-231, LARP7-overexpressing MDA-MB-231 cells)	IC50 ([2]; Homo sapiens, MDA-MB-231, MDA-MB-231 control group (of LARP7 overexpression))	IC50 ([3]; Homo sapiens, HeLa, LARP7 overexpression)	IC50 ([3]; Homo sapiens, HeLa, control group of LARP7 overexpression)	IC50 ([1]; HCC1937 control group (of LARP7 knock-down))	IC50 ([1]; LARP7-knock-down HCC1937 cells)	IC50 ([2]; LARP7-overexpressing MDA-MB-231 cells)	IC50 ([2]; MDA-MB-231 control group (of LARP7 overexpression))	IC50 ([3]; LARP7-knockdown (siLARP7, sgLARP7))	IC50 ([3]; LARP7 overexpression)	IC50 ([3]; control group of LARP7-knockdown)	IC50 ([3]; control group of LARP7 overexpression)	sensitivity of the cells by clone formation (MDA-MB-231)	sensitivity of the cells by clone formation (Hela)	sensitivity of in vivo tumor tissue (HCC1937 xenograft tumor; HCC1937 cells (high LARP7 expression))	sensitivity of in vivo tumor tissue (HCC1937 xenograft tumor; LARP7-knock-out HCC1937 cells (sgLARP7))	sensitivity of in vivo tumor tissue ([4]; MDA-MB-231 cells (low LARP7 expression))	sensitivity of in vivo tumor tissue ([4]; MDA-MB-231 cells with artificial LARP7 overexpression)
CO[C@@]12[C@H](COC(N)=O)C3=C(C(=O)C(C)=C(N)C3=O)N1C[C@@H]1N[C@@H]12 [MMS, mitomycin]	247 ± 38.1 µM	682 ± 123 µM	262 ± 20.3 µM	451 ± 29.4 µM	123 ± 22 µM	210 ± 21.6 µM	–	–	–	–	–	–	–	–	–	–	–	–	–	–
[NH2][Pt]([NH2])([Cl])[Cl] [CDDP, cisplatin]	–	–	–	–	–	–	102 ± 9.1 µM	185 ± 20.5 µM	76.3 ± 26.7 µM	232 ± 83.9 µM	55.8 ± 5.4 µM	19.1 ± 6.9 µM	31.4 ± 6 µM	39.6 ± 2.5 µM	significantly increases the sensitivity	significantly increases cell sensitivity	sensitive	less sensitive	tolerant	significantly improved the sensitivity
